Test results from ChEMBL document CHEMBL4371002 (J Med Chem, 2018).
Values after ≈ are worked out from the molar mass of the structure shown.

The compounds below were run against Procathepsin L (Homo sapiens, UniProt P07711) (assay: not given). Conditions: not given.
Chain of Procathepsin L (P07711 whole entry): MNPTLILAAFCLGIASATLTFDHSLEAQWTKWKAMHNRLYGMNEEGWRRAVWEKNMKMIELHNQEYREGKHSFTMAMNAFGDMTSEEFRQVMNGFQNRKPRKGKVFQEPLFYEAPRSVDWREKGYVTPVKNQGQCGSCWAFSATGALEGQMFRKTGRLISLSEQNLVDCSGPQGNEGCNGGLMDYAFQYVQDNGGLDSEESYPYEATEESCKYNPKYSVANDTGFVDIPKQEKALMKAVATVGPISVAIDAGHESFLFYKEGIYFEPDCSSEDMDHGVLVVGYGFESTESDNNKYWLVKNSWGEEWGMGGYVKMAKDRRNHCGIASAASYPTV
`N#Cc1nc(N2CCOCC2)nc(N(Cc2ncccn2)C2CCCC2)n1` gave a Ki of 398 nM. `N#Cc1nc(N2CCOCC2)nc(N(Cc2cccc(F)c2)C2CCCC2)n1` gave a Ki of 200 nM. With `N#Cc1nc(N2CCOCC2)nc(N(Cc2cc(F)ccc2F)C2CCCC2)n1` the Ki was 251 nM. With `N#Cc1nc(N2CCOCC2)nc(N(Cc2ccncc2)C2CCCC2)n1` the Ki was 158 nM. Compound `N#Cc1nc(N2CCOCC2)nc(N(Cc2cnccn2)C2CCCC2)n1` has a Ki of 158 nM. For `N#Cc1nc(N2CCOCC2)nc(N(Cc2ccncn2)C2CCCC2)n1`, the Ki was 251 nM. `N#Cc1nc(N2CCOCC2)nc(N(Cc2ccc(F)cc2F)C2CCCC2)n1` gave a Ki of 126 nM. With `N#Cc1nc(N2CCOCC2)nc(N(Cc2ccc(F)cc2)C2CCCC2)n1` the Ki was 501 nM. Work on `N#Cc1nc(N2CCOCC2)nc(N(Cc2cccnc2)C2CCCC2)n1` yielded a Ki of 100 nM. Compound `N#Cc1nc(N2CCOCC2)nc(N(Cc2c(F)cccc2F)C2CCCC2)n1` has a Ki of 100 nM.

The compounds below were run against Prothrombin (Homo sapiens, UniProt P00734) (assay: not given). Conditions: not given.
`N=C(N)c1ccc([C@H]2[C@H]3C(=O)N(Cc4ccc(F)cc4F)C(=O)[C@H]3[C@@H]3CCCN32)cc1` showed a Ki of 260 nM. Work on `N=C(N)c1ccc([C@H]2[C@H]3C(=O)N(Cc4cccc(F)c4F)C(=O)[C@H]3[C@@H]3CCCN32)cc1` yielded a Ki of 490 nM. With `N=C(N)c1ccc([C@H]2[C@H]3C(=O)N(Cc4cccc(F)c4)C(=O)[C@H]3[C@@H]3CCCN32)cc1` the Ki was 360 nM. Compound `N=C(N)c1ccc([C@H]2[C@H]3C(=O)N(Cc4ccc(Cl)cc4)C(=O)[C@H]3[C@@H]3CCCN32)cc1` has a Ki of 190 nM. Compound `N=C(N)c1ccc([C@H]2[C@H]3C(=O)N(Cc4ccccc4F)C(=O)[C@H]3[C@@H]3CCCN32)cc1` has a Ki of 500 nM.

These compounds were tested on Plasmodium berghei (assay: microbe, parasite or virus in culture). Conditions: not given.
Assay type: functional, organism-based
`C[C@@H]1CC[C@H]2[C@@H](C)C(=C(F)F)O[C@@H]3O[C@@]4(C)CC[C@@H]1[C@]32OO4` showed an IC50 of 20 nM. `CC1=C(C(F)(F)F)O[C@@H]2O[C@@]3(C)CC[C@H]4[C@H](C)CC[C@@H]1[C@@]24OO3` gave an IC50 of 4.6 nM and an IC90 of 7.3 nM. Work on `C[C@@H]1CC[C@H]2[C@@H](C)C(=O)O[C@@H]3O[C@@]4(C)CC[C@@H]1[C@]32OO4` [ARTEMISININ] yielded an IC50 of 8.9 nM and an IC90 of 14.5 nM.

The compounds below were run against Bacterial 70S ribosome (assay: not given). Conditions: not given.
Assay type: subcellular, Bacteria
`CC1=C\[C@@H](O)C[C@@H](F)Cc2nc(co2)C(=O)N2CCC[C@@H]2C(=O)O[C@H](C(C)C)[C@H](C)/C=C/C(=O)NC\C=C\1` gave an IC50 of 60 nM. Compound `CC1=C\[C@@H](O)CC(=O)Cc2nc(co2)C(=O)N2CCC[C@@H]2C(=O)O[C@H](C(C)C)[C@H](C)/C=C/C(=O)NC\C=C\1` [VOLPRISTIN] has an IC50 of 100 nM. `CC1=C\[C@@H](O)C[C@H](F)Cc2nc(co2)C(=O)N2CCC[C@@H]2C(=O)O[C@H](C(C)C)[C@H](C)/C=C/C(=O)NC\C=C\1` was tested, and the IC50 was 500 nM.

The compounds below were run on Staphylococcus hominis (assay: microbe, parasite or virus in culture). Conditions: IP8203.
Assay type: functional
`CC1=C\[C@@H](O)C[C@@H](F)Cc2nc(co2)C(=O)N2CCC[C@@H]2C(=O)O[C@H](C(C)C)[C@H](C)/C=C/C(=O)NC\C=C\1` gave an MIC of 0.25 µg/mL (≈ 0.47 µM). Compound `CC1=C\[C@@H](O)CC(=O)Cc2nc(co2)C(=O)N2CCC[C@@H]2C(=O)O[C@H](C(C)C)[C@H](C)/C=C/C(=O)NC\C=C\1` [VOLPRISTIN] has an MIC of 4 µg/mL (≈ 7.58 µM). With `CC1=C\[C@@H](O)C[C@H](F)Cc2nc(co2)C(=O)N2CCC[C@@H]2C(=O)O[C@H](C(C)C)[C@H](C)/C=C/C(=O)NC\C=C\1` the MIC was 8 µg/mL (≈ 15 µM).
